Data reported in patent US20220290237A1, “METHOD FOR PREDICTING THE RESPONSE OF ANTIPSYCHOTIC DRUGS” (INSERM (INSTITUT NATIONAL DE LA SANTÉ ET DE LA RECHERCHE …, priority 2019, published 2022).

Key:
total RNA from PBMCs = test: RNA-seq gene expression before and after 4 weeks of amisulpride treatment; format: in vivo, human
Excerpt: (§1) The cohort analysed in this study was obtained from the OPTiMiSE clinical trial (http://www.optimisetrial.eu) (29). After providing written informed consent, 491 patients with a first episode psychosis were included and 453 started medication. All patients were diagnosed with schizophrenia, schizophreniform disorder or schizoaffective disorder according to the Diagnostic and Statistical Manual of Mental Disorders, Fourth Edition (DSM-IV) and confirmed on the basis of the Mini International Neuropsychiatric Interview Plus (M.I.N.I. Plus) (30) (table 4). At baseline, patients were medication-naïve or minimally-treated (any antipsychotic medication used for […] 2 weeks in the previous year or for a total of 6 weeks in their lifetime) and were ill for no longer than 2 years. Only subjects involved in the single-treatment arm (phase 1) of the trial were considered for this study (29). All patients were treated for 4 weeks with amisulpride (200-800 mg/day orally). At the end of the 4-week treatment, the blood concentration of antipsychotic used has been determined. This measurement provided a reliable indication of the treatment compliance of individual patients.
A DNase digestion procedure was added after extraction. Total RNA was purified using the RNA Clean & Concentrator™-5 kit following the manufacturer's instructions (Zymo Research Corp., Irvine, USA). RNA quantification was performed on a NanoDrop™ 8000 spectrophotometer, in duplicate. The quality and integrity of the RNA samples were assessed using an Agilent Bioanalyzer 2100 and the RNA6000 Nano Labchip kit (Agilent Technologies). Only samples with an RNA integrity number (RIN) higher than 7 were selected. Three hundred and seventy-six RNA samples fulfilled quality control criteria for RNA-seq analyses, corresponding to two RNA samples (one at inclusion and one after 4 weeks of treatment) for 188 subjects. Forty-eight additional RNAs were available for replication studies, in 24 independent subjects.
All libraries were prepared using the Illumina TruSeq Stranded Total RNA with Ribo-Zero Globin kit (Illumina Inc., San Diego, Calif., U.S.A.), which removes ribosomal RNA and globin mRNA. Libraries were prepared using one microgram of total RNA as initial input and following the standard protocols. After library quality control, 2×100 bp paired-end (PE) sequencing was performed on a HiSeq4000 system (Illumina), pooling a maximum of 6 samples on each lane, in order to reach 40 to 50 million of PE-reads for each sample. The Illumina pipeline was used to generate raw RNA sequencing data (fastq files) for each sample. Sequence quality controls were performed, using FastQC and in-house bioinformatics pipelines, from a sampling of 2×10 million reads in order to assess the levels of read duplicates, adapters, remaining rRNA and the GC content. Reads were trimmed for adapters and low-quality bases (Phred quality score <30) using Trimmomatic software (v.0.32). Reads were then mapped to the Genome Reference Consortium human genome assembly 37 (GRCh37) reference genome (hg19) using Tophat software (v.2.0.13). Read mapping quality was assessed using RNA-SeQC software. Then, gene-level quantification in read counts was performed by HTSeq software (v.0.6.1), using gene annotation from Ensembl v.86. All downstream analyses were conducted using the statistical software R (v.3.2.4) and Bioconductor R packages. Genes with counts-per million (cpm) below 1 in more than two third of the samples were considered unexpressed and removed from the analysis using edgeR package (v.3.12.1). Raw gene counts matrix has been normalized to account for differences in sequencing depth and RNA composition using the “median ratio” method implemented in the DESeq2 package (v.1.16.1). To avoid batch effects as confounding factors, all subjects had their 2 time-points in a same batch. […]

[1] = Clinical response (total PANSS score change) over 4 weeks of amisulpride, OPTiMiSE first episode psychosis; format: in vivo, human
Excerpt: as §1
A clinical response to treatment can be defined according to many criteria. […] Note that good responders were slightly older than poor responders with a lower duration of untreated psychosis and more positive symptoms (data not shown).

[2] = good responders (n = 113), 4 weeks amisulpride
[3] = poor responders (n = 75), 4 weeks amisulpride
[4] = admixture model of total PANSS score change over 4 weeks of treatment, 200-800 mg/day orally
[5] = of 188 subjects, 4 weeks of treatment

## CCN1CCCC1CNC(=O)c1cc(S(=O)(=O)CC)c(N)cc1OC (stereo not drawn) [amisulpride, 4-amino-N-((1-ethyl-2-pyrrolidinyl)methyl)-5-(etgylsulfonyl)-2-methoxybenzamide]
Total RNA from PBMCs; GALNT14, poor responders (n = 75), 4 weeks amisulpride
  FC, fold-change at week 4 relative to the expression level at inclusion: GALNT14: 1.04
Total RNA from PBMCs; [2]
  FC, fold-change at week 4 relative to the expression level at inclusion: GUCY1B3: 1.14
  FC, fold-change at week 4 relative to the expression level at inclusion: HOMER3: 0.84
  FC, fold-change at week 4 relative to the expression level at inclusion: KAZN: 0.83
  FC, fold-change at week 4 relative to the expression level at inclusion: KIAA0319: 0.83
  FC, fold-change at week 4 relative to the expression level at inclusion: LINC00963: 0.91
  FC, fold-change at week 4 relative to the expression level at inclusion: NFE4: 0.83
  FC, fold-change at week 4 relative to the expression level at inclusion: NLRP6: 0.81
  FC, fold-change at week 4 relative to the expression level at inclusion: NLRP12: 0.87
  FC, fold-change at week 4 relative to the expression level at inclusion: P2RY12: 1.14
  FC, fold-change at week 4 relative to the expression level at inclusion: P4HA2: 0.89
  FC, fold-change at week 4 relative to the expression level at inclusion: PLB1: 0.85
  FC, fold-change at week 4 relative to the expression level at inclusion: SLC4A4: 1.15
  FC, fold-change at week 4 relative to the expression level at inclusion: TRPC6: 1.26
  FC, fold-change at week 4 relative to the expression level at inclusion: WLS: 0.87
Total RNA from PBMCs; [3]
  FC, fold-change at week 4 relative to the expression level at inclusion: GUCY1B3: 1.05
  FC, fold-change at week 4 relative to the expression level at inclusion: HOMER3: 1.09
  FC, fold-change at week 4 relative to the expression level at inclusion: KAZN: 0.94
  FC, fold-change at week 4 relative to the expression level at inclusion: KIAA0319: 0.94
  FC, fold-change at week 4 relative to the expression level at inclusion: LINC00963: 1.08
  FC, fold-change at week 4 relative to the expression level at inclusion: NFE4: 0.95
  FC, fold-change at week 4 relative to the expression level at inclusion: NLRP6: 1.09
  FC, fold-change at week 4 relative to the expression level at inclusion: NLRP12: 1.08
  FC, fold-change at week 4 relative to the expression level at inclusion: P2RY12: 1.10
  FC, fold-change at week 4 relative to the expression level at inclusion: P4HA2: 1.04
  FC, fold-change at week 4 relative to the expression level at inclusion: PLB1: 0.99
  FC, fold-change at week 4 relative to the expression level at inclusion: SLC4A4: 0.93
  FC, fold-change at week 4 relative to the expression level at inclusion: TRPC6: 0.97
  FC, fold-change at week 4 relative to the expression level at inclusion: WLS: 0.98
Total RNA from PBMCs; good responders only, FDR threshold of 0.1, 16,204 genes expressed in PBMCs
  DEGs before vs after treatment that survived BH-correction: 32 genes
[1]; [4]
  proportion of good responders: 56%
  proportion of poor responders: 44%
[1]; good responders subpopulation of the admixture model, 4 weeks of treatment
  mean reduction of total PANSS score: 36.3%
[1]; [5]
  patients with a less than 20% reduction in total PANSS score: 75 patients
  patients with a more than 20% reduction in total PANSS score: 113 patients
[1]; poor responders subpopulation of the admixture model, 4 weeks of treatment
  mean PANSS total reduction: 13.0%
